# Data as given in patent US12441719B2, “Inhibitors of SARM1” (Disarm Therapeutics, Inc., priority 2019, dated 2025).
# Where two headings read alike, the source gives them in different places.
# Target: T1, SARM1 (Homo sapiens, UniProt Q6SZW1)
# T1 construct: AviTag […]; made in house; host or cells: NRK1-HEK293T cells, transiently transfected; the clarified sonicated lysate was used without purification
# T1 sequence (Q6SZW1 with tags, fused parts or gaps): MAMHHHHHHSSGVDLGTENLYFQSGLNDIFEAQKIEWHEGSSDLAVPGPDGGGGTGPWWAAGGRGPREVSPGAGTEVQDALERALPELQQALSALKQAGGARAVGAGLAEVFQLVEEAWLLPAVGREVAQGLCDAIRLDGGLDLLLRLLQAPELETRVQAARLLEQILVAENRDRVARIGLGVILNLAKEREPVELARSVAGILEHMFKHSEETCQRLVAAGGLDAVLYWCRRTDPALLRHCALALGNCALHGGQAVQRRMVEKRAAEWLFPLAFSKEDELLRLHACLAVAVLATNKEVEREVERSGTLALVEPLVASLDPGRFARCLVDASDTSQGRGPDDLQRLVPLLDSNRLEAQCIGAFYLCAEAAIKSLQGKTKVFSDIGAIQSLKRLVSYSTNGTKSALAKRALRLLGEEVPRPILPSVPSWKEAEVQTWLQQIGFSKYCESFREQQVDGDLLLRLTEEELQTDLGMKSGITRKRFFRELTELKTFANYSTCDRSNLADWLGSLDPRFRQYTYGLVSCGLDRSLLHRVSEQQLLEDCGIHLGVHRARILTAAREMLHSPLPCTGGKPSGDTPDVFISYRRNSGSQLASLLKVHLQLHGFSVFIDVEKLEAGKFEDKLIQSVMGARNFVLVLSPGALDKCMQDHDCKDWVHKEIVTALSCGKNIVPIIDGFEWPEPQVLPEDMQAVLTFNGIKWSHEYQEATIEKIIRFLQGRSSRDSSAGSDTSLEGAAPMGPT
# Assay: ARM-SAM-TIR SARM1 IC50 assay (NADase activity, NAD+ cleavage)
# Format: biochemical
# Description: This Example describes an assay of ARM-SAM-TTR NADase activity and use of this assay to measure the efficacy of compounds of Formula I or Formula II to block SARM1 mediated NAD+ cleavage. This assay is optimized in such a way as to characterize the efficacy of the compounds in Formula I or Formula II to inhibit SARM1 activity and to calculate an IC50 value for each compound. This assay makes use of full length SARI, which encompasses the ARM, SAM and TTR domains.
# Preparation of ARM-SAM-TIR Lysate (STL)
# NRK1-HEK293T cells were seeded onto 150 cm^2 plates at 20×10^6 cells per plate. The next day, the cells were transfected with 15 μg ARM-SAM-TIR expression plasmid, SEQ ID NO: 1.
# The cultures were supplemented with 1 mM NR at time of transfection to minimize toxicity from ARM-SAM-TIR overexpression. Forty-eight hours after transfection, cells were harvested, pelleted by centrifugation at 1,000 rpm (Sorvall ST 16R centrifuge, Thermo Fisher), and washed once with cold PBS (0.01 M phosphate buffered saline NaCl 0.138 M; KCl 0.0027 M; pH 7.4). The cells were resuspended in PBS with protease inhibitors (cOmplete™ protease inhibitor cocktail, Roche product #11873580001) and cell lysates were prepared by sonication (Branson Sonifer 450, output=3, 20 episodes of stroke). The lysates were centrifuged (12,000×g for 10 min at 4° C.) to remove cell debris and the supernatants (containing ARM-SAM-TIR protein) were stored at −80° C. for later use in the in vitro ARM-SAM-TIR NADase assay (see below). Protein concentration was determined by the Bicinchoninic (BCA) method and used to normalize lysate concentrations.
# ARM-SAM-TIR IC50 Assay of Formula I or Formula II Compounds.
# The enzymatic assay was performed in a 384-well polypropylene plate in Dulbecco's PBS buffer in a final assay volume of 20 μL. ARM-SAM-TIR lysate with a final concentration of 5 μg/mL was pre-incubated with the respective compound at 1% DMSO final assay concentration over 2 h at room temperature. The reaction was initiated by addition of 5 μM final assay concentration of NAD+ as substrate. After a 2 hr room temperature incubation, the reaction was terminated with 40 μL of stop solution of 7.5% trichloroactetic acid in acetonitrile. The NAD+ and ADPR concentrations were analyzed by a RapidFire High Throughput Mass Spectrometry System (Agilent Technologies, Santa Clara, CA) using an API4000 triple quadrupole mass spectrometer (AB Sciex Framingham, MA).
# [1] = ARM-SAM-TIR lysate 5 μg/mL from NRK1-HEK293T cells, 2 h pre-incubation with compound, 5 μM NAD+, 2 hr room temperature, NAD+ and ADPR by RapidFire mass spectrometry, read-out: SARM1 IC50
SMILES,IC50 [1] [µM],IC50 [µM]
N#Cc1cc(N2CCC(NCCO)CC2)nc2ccc(Cl)cc12 [Example 1],5 to 15,
OCCNC1CCN(c2ccc3cc(Cl)ccc3n2)CC1 [Example 2],> 30,
N#Cc1cc(N2CCC(N)CC2)nc2ccc(Cl)cc12 [Example 3],5 to 15,
NC(=O)c1cc(N2CCC(NCCO)CC2)nc2ccc(Cl)cc12 [Example 6],> 30,
N#Cc1cc(N2CCC(NCCO)CC2)nc2ccccc12 [Example 8],> 30,
Cc1cc(N2CCC(NCCO)CC2)nc2ccc(Cl)cc12 [Example 9],> 30,
N#Cc1cc(Cl)nc2ccc(Cl)cc12 [Example 15],> 30,
N#Cc1cc(N2CCNCC2)nc2ccc(Cl)cc12 [Example 16],,> 30
Cc1ccc2nc(N3CCC(N)CC3)cc(C#N)c2c1 [Example 17],5 to 15,
Cc1ccc2nc(N3CCCCC3)cc(C#N)c2c1 [Example 18],5 to 15,
N#Cc1cc(N2CCC(N)CC2)nc2ccc(F)cc12 [Example 23],> 30,
CN(C)c1cc(C#N)c2cc(F)ccc2n1 [Example 25],5 to 15,
Cc1cnc(CNc2cc(C#N)c3cc(Cl)ccc3n2)o1 [Example 28],> 30,
COCCNC(=O)CNc1cc(C#N)c2cc(Cl)ccc2n1 [Example 29],15 to 30,
N#Cc1cc(NCC(O)c2ccco2)nc2ccc(Cl)cc12 (centres unmarked) [Example 30],5 to 15,
Cn1c(CNc2cc(C#N)c3cc(Cl)ccc3n2)nc2cccnc21 [Example 32],> 30,
N#Cc1cc(NC(CCO)C2CCOCC2)nc2ccc(Cl)cc12 (centres unmarked) [Example 33],5 to 15,
N#Cc1cc(N2CC(CO)C2)nc2ccc(Cl)cc12 [Example 34],5 to 15,
CC(O)CNc1cc(C#N)c2cc(Cl)ccc2n1 (centres unmarked) [Example 38],15 to 30,
CNC(=O)C(CO)Nc1cc(C#N)c2cc(Cl)ccc2n1 (centres unmarked) [Example 39],> 30,
CN(C)C(=O)NCCNc1cc(C#N)c2cc(Cl)ccc2n1 [Example 41],15 to 30,
N#Cc1cc(N2CCN(c3ncc[nH]3)CC2)nc2ccc(Cl)cc12 [Example 43],15 to 30,
CO[C@H]1CCN(c2cc(C#N)c3cc(Cl)ccc3n2)C1 [Example 49],< 5,
CNc1cc(C#N)c2cc(Cl)ccc2n1 [Example 50],< 5,
N#Cc1cc(NC2CC2)nc2ccc(Cl)cc12 [Example 51],> 30,

SMILES,IC50 [1] [µM],IC50 [µM]
CN1CCN(c2cc(C#N)c3cc(Cl)ccc3n2)CC1 [Example 52],> 30,
CCN1CCN(c2cc(C#N)c3cc(Cl)ccc3n2)CC1 [Example 53],> 30,
COC1CCN(c2cc(C#N)c3cc(Cl)ccc3n2)CC1 [Example 54],< 5,
CS(=O)(=O)C1CCN(c2cc(C#N)c3cc(Cl)ccc3n2)CC1 [Example 55],5 to 15,
N#Cc1cc(N2CCC(C(N)=O)CC2)nc2ccc(Cl)cc12 [Example 56],5 to 15,
CNC(=O)C1CCN(c2cc(C#N)c3cc(Cl)ccc3n2)CC1 [Example 57],< 5,
N#Cc1cc(N2CCC[C@H](N)C2)nc2ccc(Cl)cc12 [Example 58],< 5,
CS(=O)(=O)C1CCCN(c2cc(C#N)c3cc(Cl)ccc3n2)C1 (centres unmarked) [Example 59],< 5,
CO[C@@H]1CCCN(c2cc(C#N)c3cc(Cl)ccc3n2)C1 [Example 60],< 5,
CO[C@H]1CCCN(c2cc(C#N)c3cc(Cl)ccc3n2)C1 [Example 61],< 5,
C[C@@H]1CCCN(c2cc(C#N)c3cc(Cl)ccc3n2)C1 [Example 62],< 5,
C[C@H]1CCCN(c2cc(C#N)c3cc(Cl)ccc3n2)C1 [Example 63],< 5,
N#Cc1cc(N2CCC(N)CC2)nc2cc(Cl)ccc12 [Example 64],< 5,
N#Cc1cc(N2CC[C@@H](N)C2)nc2ccc(Cl)cc12 [Example 65],< 5,
N#Cc1cc(N2CC[C@H](N)C2)nc2ccc(Cl)cc12 [Example 66],< 5,
N#Cc1cc(N2CCC(C(N)=O)C2)nc2ccc(Cl)cc12 (centres unmarked) [Example 67],< 5,
CNC(=O)C1CCN(c2cc(C#N)c3cc(Cl)ccc3n2)C1 (centres unmarked) [Example 68],5 to 15,
CN(C)C(=O)C1CCN(c2cc(C#N)c3cc(Cl)ccc3n2)C1 (centres unmarked) [Example 69],< 5,
N#Cc1cc(N)nc2ccc(Cl)cc12 [Example 70],15 to 30,
N#Cc1cc(N2CCCC2)nc2cc(F)c(Cl)cc12 [Example 71],< 5,
N#Cc1cc(N2C3CNCC2C3)nc2ccc(Cl)cc12 [Example 72],,< 5
N#Cc1cc(N2CC3CC(C2)N3)nc2ccc(Cl)cc12 [Example 73],,< 5
N#Cc1cc(N2CC3CCC2CN3)nc2ccc(Cl)cc12 (centres unmarked) [Example 74],,< 5
N#Cc1cc(N2CCC(O)CC2)nc2ccc(Cl)cc12 [Example 75],< 5,

# Continued, in another order:
IC50 [1] [µM],SMILES,IC50 [µM]
< 5,N#Cc1cc(N2CCCCC2)nc2ccc(Cl)cc12 [Example 4],
< 5,CN(C)c1cc(C#N)c2cc(Cl)ccc2n1 [Example 5],
< 5,N#Cc1cc(N2CCCC2)nc2ccc(Cl)cc12 [Example 10],
< 5,N#Cc1cc(N2CC[C@@H](O)C2)nc2ccc(Cl)cc12 [Example 11],
< 5,N#Cc1cc(N2CC[C@H](O)C2)nc2ccc(Cl)cc12 [Example 12],
< 5,N#Cc1cc(NCC2CC2)nc2ccc(Cl)cc12 [Example 13],
< 5,COc1cc(C#N)c2cc(Cl)ccc2n1 [Example 14],
< 5,Cc1ccc2nc(N(C)C)cc(C#N)c2c1 [Example 19],
< 5,N#Cc1cc(N2CCC(N)CC2)nc2ccc(Br)cc12 [Example 20],
< 5,N#Cc1cc(N2CCCCC2)nc2ccc(Br)cc12 [Example 21],
< 5,CN(C)c1cc(C#N)c2cc(Br)ccc2n1 [Example 22],
< 5,N#Cc1cc(N2CCCCC2)nc2ccc(F)cc12 [Example 24],
< 5,N#Cc1cc(N2CCCCC2)nc2cc(Cl)ccc12 [Example 26],
< 5,CN(C)c1cc(C#N)c2ccc(Cl)cc2n1 [Example 27],
< 5,N#Cc1cc(NC2CCCCNC2=O)nc2ccc(Cl)cc12 (centres unmarked) [Example 31],
< 5,CC(=O)N1CCN(c2cc(C#N)c3cc(Cl)ccc3n2)CC1 [Example 35],
< 5,CC1CC(CNc2cc(C#N)c3cc(Cl)ccc3n2)CCO1 (centres unmarked) [Example 36],
< 5,N#Cc1cc(NC2CCCN(C(N)=O)C2)nc2ccc(Cl)cc12 (centres unmarked) [Example 37],
< 5,N#Cc1cc(N2CCCC(CCC(N)=O)C2)nc2ccc(Cl)cc12 (centres unmarked) [Example 40],
< 5,N#Cc1cc(NCc2ccccn2)nc2ccc(Cl)cc12 [Example 42],
< 5,N#Cc1cc(NC2CCN(Cc3cccnc3)CC2)nc2ccc(Cl)cc12 [Example 44],
< 5,N#Cc1cc(NCc2cccc(C(N)=O)c2)nc2ccc(Cl)cc12 [Example 45],
< 5,CN1CCC(Nc2cc(C#N)c3cc(Cl)ccc3n2)C1=O (centres unmarked) [Example 46],
< 5,CS(=O)(=O)C1CCN(c2cc(C#N)c3cc(Cl)ccc3n2)C1 (centres unmarked) [Example 47],
< 5,CO[C@@H]1CCN(c2cc(C#N)c3cc(Cl)ccc3n2)C1 [Example 48],
